Measurements: US9126952B2, “Morpholinylquinazolines” (Merck Patent GmbH, priority 2010, dated 2015)

system: mammal cells; experiment: not given; settings: Rosenzweig et al. (1999); cited from earlier work

Compound	increase in sensitivity to ionising irradiation in cellular terms
O=c1cc(N2CCOCC2)oc2c(-c3ccccc3)cccc12 [LY294002]	only a weak increase in sensitivity to ionising irradiation

system: kinases of the PI3K isoenzyme family; experiment: not given; settings: cited from earlier work

Compound	inhibition of PI3K isoenzyme family kinases
CCN1CCN(CC(=O)Nc2ccc(-c3cccc4c(=O)cc(N5CCOCC5)oc34)c3sc4ccccc4c23)CC1 [KU-0060648]	potently inhibited

target: T1, DNA-PK (Homo sapiens (Human), UniProt P78527); experiment: DNA-PK/biochemical assay (FlashPlate kinase assay); settings: 5 μM ATP, 90 min, room temperature; read-out: Binding DNA-PK IC50
Method: […] To this end, 1.5 μg of the DNA-PK/protein complex and 100 ng of biotinylated substrate, such as, for example, PESQEAFADLWKK biotin-NH2 (“biotin-DNA-PK peptide”), in a total volume of 36.5 μl (34.25 mM HEPES/KOH, 7.85 mM Tris-HCl, 68.5 mM KCl, 5 μM ATP, 6.85 mM MgCl2, 0.5 mM EDTA, 0.14 mM EGTA, 0.69 mM DTT, pH 7.4), were incubated at room temperature for 90 min with 500 ng of DNA from calf thymus, 0.1 μCi of 33P-ATP and 1.8% of DMSO per well with or without the test compound. The reaction was stopped using 50 μl/well of 200 mM EDTA. After incubation for a further 30 min at room temperature, the liquid was removed. Each well was washed three times with 100 μl of 0.9% sodium chloride solution. A non-specific reaction (blank value) was determined using 10 μM of a proprietary kinase inhibitor. The radioactivity measurement was carried out by means of a TopCount. IC50 values were calculated in RS1. • Literature: Kashishian et al. (2003) Molecular Cancer Therapeutics 1257.

Compound	IC50 [µM]
OC(c1ncco1)C1CCCN(c2ncnc3cc(N4CCOCC4)ccc23)C1 (stereo not shown) [compound 53, [1-(7-Morpholin-4-yl quinazolin-4-yl)-piperidin-3-yl]-oxazol-2-yl-methanol]	< 0.1
c1csc(CC2CCCN(c3ncnc4cc(N5CCOCC5)ccc34)C2)n1 (stereo not shown) [compound 32]	< 0.1
c1nc(N2CCCCCC2)c2ccc(N3CCOCC3)cc2n1 [compound 8, 4-Azepan-1-yl-7-morpholin-4-yl-quinazoline]	0.1 to 0.5
O=C(NC1CCCN(c2nc(Cl)nc3cc(N4CCOCC4)ccc23)C1)c1cncs1 (stereo not shown) [compound 59]	< 0.1
c1ccc(C2CCCN(c3ncnc4cc(N5CCOCC5)ccc34)C2)cc1 (stereo not shown) [compound 4, 7-Morpholin-4-yl-4-(3-phenylpiperidin-1-yl)quinazoline]	< 0.1
Cc1nc(CC2CCCN(c3ncnc4cc(N5CCOCC5)ccc34)C2)sc1C (stereo not shown) [compound 52, 4-[3-(4,5-Dimethyl-thiazol-2-ylmethyl)-piperidin-1-yl]-7-morpholin-4-yl-quinazoline]	< 0.1
Clc1nc(N2CCCCC2)c2ccc(N3CCOCC3)cc2n1 [compound 2]	< 0.1
CCOCC1CCCN(c2ncnc3cc(N4CCOCC4)ccc23)C1 (stereo not shown) [compound 18, 4-(3-Ethoxymethyl-piperidin-1-yl)-7-morpholin-4-yl-quinazoline]	0.1 to 0.5
OC(c1nccs1)C1CCCN(c2ncnc3cc(N4CCOCC4)ccc23)C1 (stereo not shown) [compound 46, [1-(7-Morpholin-4-yl-quinazolin-4-yl)-piperidin-3-yl]-thiazol-2-yl-methanol]	< 0.1
FC(F)(F)c1cccc(C2CCCN(c3ncnc4cc(N5CCOCC5)ccc34)C2)c1 (stereo not shown) [compound 28, 7-Morpholin-4-yl-4-[3-(3-trifluoromethyl-phenyl)piperidin-1-yl]quinazoline]	0.1 to 0.5
c1ccc2sc(C3CCCN(c4ncnc5cc(N6CCOCC6)ccc45)C3)nc2c1 (stereo not shown) [compound 14, 4-(3-Benzothiazol-2-ylpiperidin-1-yl)-7-morpholin-4-yl-quinazoline]	< 0.1
Cc1nc(N2CCCCC2)c2ccc(N3CCOCC3)cc2n1 [compound 34, 2-Methyl-7-morpholin-4-yl-4-piperidin-1-yl-quinazoline]	> 1
Clc1nc(N2CCCC(Cn3ccnc3)C2)c2ccc(N3CCOCC3)cc2n1 (stereo not shown) [compound 25, 2-Chloro-4-(3-imidazol-1-ylmethyl-piperidin-1-yl)-7-morpholin-4-yl-quinazoline]	< 0.1
Nc1nc(N2CCCCC2)c2ccc(N3CCOCC3)cc2n1 [compound 57, 7-Morpholin-4-yl-4-piperidin-1-yl-quinazolin-2-ylamine]	0.5 to 1
Cc1cnc(C(O)C2CCCN(c3ncnc4cc(N5CCOCC5)ccc34)C2)s1 (stereo not shown) [compound 47, (5-Methyl-thiazol-2-yl)-[1-(7-morpholin-4-ylquinazolin-4-yl)-piperidin-3-yl]-methanol]	< 0.1
c1ccc([C@H]2CCCN(c3ncnc4cc(N5CCOCC5)ccc34)C2)cc1 [compound 6, 7-Morpholin-4-yl-4-((R)-3-phenyl-piperidin-1-yl)-quinazoline]	< 0.1
COc1ccc(C2CCCN(c3ncnc4cc(N5CCOCC5)ccc34)C2)cc1 (stereo not shown) [compound 3, 4-[3-(4-Methoxy-phenyl)piperidin-1-yl]-7-morpholin-4-yl-quinazoline]	0.1 to 0.5
COc1cccc(C2CCCN(c3ncnc4cc(N5CCOCC5)ccc34)C2)c1 (stereo not shown) [compound 22, 4-[3-(3-Methoxy-phenyl)piperidin-1-yl]-7-morpholin-4-yl-quinazoline]	< 0.1
Cn1ccnc1CC1CCCN(c2ncnc3cc(N4CCOCC4)ccc23)C1 (stereo not shown) [compound 29, 4-[3-(1-Methyl-1H-imidazol-2-ylmethyl)-piperidin-1-yl]-7-morpholin-4-yl-quinazoline]	< 0.1

target: T1, DNA-PK; experiment: not given; settings: ATP-competitive; Hardcastle et al. (2005); cited from earlier work

Compound	IC50 [µM]
O=c1cc(N2CCOCC2)oc2c(-c3cccc4c3sc3ccccc34)cccc12 [NU-7441]	0.02
